The supplement of paper PMC11061612

Tests used:
Assay in all cases: combination Emax (second highest fraction inhibited in the dose matrix, 72 h); higher = more inhibition; extreme values may be limits of the assay
[1] = tested on: AN3-CA (Endometrial Carcinoma)
How it was run: (§1)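 After 24 hours at 37°C and 5% CO2 in 1536-well plates, cells in DMEM/F12 or RPMI plus 10% FBS received two-drug dose matrices for 72 hours. Viability came from CellTiter-Glo 2.0 luminescence and was scaled as inhibition, anchored at 0 by vehicle wells and at 1 by blank wells. Combination Emax is taken as the second-highest inhibition in the matrix, and Bliss excess as the observed combination effect less EA + EB − EA·EB, with EA and EB the single-agent effects.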

[2] = tested on: KYSE-70 (Esophageal Squamous Cell Carcinoma)
How it was run: as §1

[3] = tested on: NCI-H1755 (Lung Adenocarcinoma)
How it was run: as §1

[4] = tested on: OV-90 (Ovarian Carcinoma)
How it was run: as §1

[5] = tested on: SJRH30 (Rhabdomyosarcoma)
How it was run: as §1

[6] = tested on: RMG-I (Ovarian Carcinoma)
How it was run: as §1

[7] = tested on: AsPC-1 (Pancreatic Carcinoma)
How it was run: as §1

[8] = tested on: NCI-H1563 (Lung Adenocarcinoma)
How it was run: as §1

[9] = tested on: Becker (Low Grade Glioma)
How it was run: as §1

[10] = tested on: RERF-LC-KJ (Lung Adenocarcinoma)
How it was run: as §1

CHL-1 (Melanoma) = tested on: CHL-1 (Melanoma)
How it was run: as §1

[11] = tested on: EB-3 (Burkitt's Lymphoma)
How it was run: as §1

[12] = tested on: BALL-1 (B-Lymphoblastic Leukemia)
How it was run: as §1

[13] = tested on: HSC-3 (Oral Cavity Carcinoma)
How it was run: as §1

[14] = tested on: NCI-H1155 (Non-Small Cell Lung Carcinoma)
How it was run: as §1

[15] = tested on: Caov-3 (Ovarian Carcinoma)
How it was run: as §1

[16] = tested on: LOUCY (T-Lymphoblastic Leukemia)
How it was run: as §1

786-0 (Kidney Carcinoma) = tested on: 786-0 (Kidney Carcinoma)
How it was run: as §1

[17] = tested on: Calu-6 (Non-Small Cell Lung Carcinoma)
How it was run: as §1

RT4 (Bladder Carcinoma) = tested on: RT4 (Bladder Carcinoma)
How it was run: as §1

SMILES | combination Emax [1] | combination Emax [2] | combination Emax [3] | combination Emax [4] | combination Emax [5] | combination Emax [6] | combination Emax [7] | combination Emax [8] | combination Emax [9] | combination Emax [10] | combination Emax (CHL-1 (Melanoma)) | combination Emax [11] | combination Emax [12] | combination Emax [13] | combination Emax [14] | combination Emax [15] | combination Emax [16] | combination Emax (786-0 (Kidney Carcinoma)) | combination Emax [17] | combination Emax (RT4 (Bladder Carcinoma))
COc1cccc(OCCCN)c1-c1cc(Nc2cnc(C#N)cn2)n[nH]1 [Prexasertib] + O=C(c1cc(Cc2n[nH]c(=O)c3ccccc23)ccc1F)N1CCN(C(=O)C2CC2)CC1 [Olaparib] (first compound max 1 µM, 7x7, partner max 10 µM) | 0.81 | 0.626 | 0.907 | 0.558 | 0.868 | 0.515 | 0.332 | 0.27 | 0.704 | 0.203 | 0.838 | 0.694 | 0.994 | 0.719 | 0.927 | 0.855 | 1 | 0.869 | 0.698 | 0.237
CN(CCO)CC[C@H](CSc1ccccc1)Nc1ccc(S(=O)(=O)NC(=O)c2ccc(N3CCC([C@@H](O)c4ccccc4-c4ccc(Cl)cc4)CC3)cc2)cc1S(=O)(=O)C(F)(F)F [AZD4320] + CCN(CCO)CCCOc1ccc2c(Nc3cc(CC(=O)Nc4cccc(F)c4)[nH]n3)ncnc2c1 [AZD2811] (first compound max 1 µM, 7x7, partner max 1 µM) | 0.474 | 0.391 | 0.43 | 0.743 | 0.503 | 0.728 | 0.541 | 0.188 | 0.224 | 0.309 | 0.73 | 0.241 | 1 | 0.664 | 0.918 | 0.94 | 1 | 0.166 | 0.801 | 1
CC1(C)CCC(CN2CCN(c3ccc(C(=O)NS(=O)(=O)c4ccc(NCC5CCOCC5)c([N+](=O)[O-])c4)c(Oc4cnc5[nH]ccc5c4)c3)CC2)=C(c2ccc(Cl)cc2)C1 [Venetoclax] + CN(C)CCCOc1ccc(-c2ccc3ncc4c(c3c2)n(C2CCOCC2)c(=O)n4C)cn1 [AZD0156] (first compound max 1 µM, 7x7, partner max 1 µM) | 0.227 | 0.104 | 0.654 | 0.3 | 0.177 | 0.348 | 0.193 | 0.406 | 0.434 | 0.278 | 0.27 | 0.343 | 1 | 0.233 | 0.145 | 0.59 | 1 | 0.195 | 0.199 | 0.189
CC1(C)CCC(CN2CCN(c3ccc(C(=O)NS(=O)(=O)c4ccc(NCC5CCOCC5)c([N+](=O)[O-])c4)c(Oc4cnc5[nH]ccc5c4)c3)CC2)=C(c2ccc(Cl)cc2)C1 [Venetoclax] + Cn1cnc2c(F)c(Nc3ccc(Br)cc3Cl)c(C(=O)NOCCO)cc21 [Selumetinib] (first compound max 1 µM, 7x7, partner max 3 µM) | 0.204 | 0.19 | 0.636 | 0.571 | 0.1 | 0.267 | 0.403 | 0.242 | 0.215 | 0.185 | 0.0922 | 0.154 | 1 | 0.365 | 0.371 | 0.603 | 1 | 0.16 | 0.431 | 0.304
CN(C)CCCOc1ccc(-c2ccc3ncc4c(c3c2)n(C2CCOCC2)c(=O)n4C)cn1 [AZD0156] + C[C@@H]1COCCN1C2=NC(=NC(=C2)C3(CC3)[S@](=N)(=O)C)C4=C5C=CNC5=NC=C4 [AZD6738] (first compound max 1 µM, 7x7, partner max 10 µM) | 0.491 | 0.397 | 0.816 | 0.437 | 0.894 | 0.528 | 0.454 | 0.385 | 0.579 | 0.225 | 0.798 | 0.763 | 0.986 | 0.487 | 0.748 | 0.663 | 1 | 0.641 | 0.777 | 0.411
Cc1c2c(nn1C)CSCc1cc(n(C)n1)CSc1cc(c3ccccc3c1)OCCCc1c(C(=O)O)n(C)c3c-2c(Cl)ccc13 [AZD5991] + CC1(C)CCC(CN2CCN(c3ccc(C(=O)NS(=O)(=O)c4ccc(NCC5CCOCC5)c([N+](=O)[O-])c4)c(Oc4cnc5[nH]ccc5c4)c3)CC2)=C(c2ccc(Cl)cc2)C1 [Venetoclax] (first compound max 1 µM, 7x7, partner max 1 µM) | 0.835 | 0.103 | 0.212 | 0.246 | 0.588 | 0.421 | 0.12 | 0.768 | 0.124 | 0.444 | 0.968 | 0.145 | 1 | 0.466 | 0.379 | 0.453 | 1 | 0.199 | 0.215 | 0.959
Cc1c2c(nn1C)CSCc1cc(n(C)n1)CSc1cc(c3ccccc3c1)OCCCc1c(C(=O)O)n(C)c3c-2c(Cl)ccc13 [AZD5991] + CN(C)CCCOc1ccc(-c2ccc3ncc4c(c3c2)n(C2CCOCC2)c(=O)n4C)cn1 [AZD0156] (first compound max 1 µM, 7x7, partner max 1 µM) | 0.404 | 0.156 | 0.361 | 0.209 | 0.544 | 0.293 | 0.24 | 0.668 | 0.141 | 0.589 |  | 0.371 | 0.606 | 0.873 | 0.626 | 0.39 | 0.638 | 0.251 | 0.282 | 0.289
Cc1c2c(nn1C)CSCc1cc(n(C)n1)CSc1cc(c3ccccc3c1)OCCCc1c(C(=O)O)n(C)c3c-2c(Cl)ccc13 [AZD5991] + Cn1cnc2c(F)c(Nc3ccc(Br)cc3Cl)c(C(=O)NOCCO)cc21 [Selumetinib] (first compound max 1 µM, 7x7, partner max 3 µM) | 0.311 | 0.188 | 0.338 |  | 0.512 | 0.41 | 0.506 | 0.551 | 0.274 | 0.516 | 0.279 | 0.138 | 0.271 | 0.744 | 0.363 | 0.501 | 0.595 | 0.251 | 0.635 | 0.352
CCc1c2c(nc3ccc(O)cc13)-c1cc3c(c(=O)n1C2)COC(=O)[C@]3(O)CC [SN-38] + O=C(c1cc(Cc2n[nH]c(=O)c3ccccc23)ccc1F)N1CCN(C(=O)C2CC2)CC1 [Olaparib] (first compound max 0.3 µM, 7x7, partner max 10 µM) |  | 0.304 | 0.616 | 0.553 | 0.444 | 0.421 | 0.156 |  | 0.818 |  | 0.508 | 0.682 | 1 | 0.847 | 0.968 | 0.984 | 0.764 | 0.931 | 0.776 | 0.832
NC1(C(=O)N[C@@H](CCO)c2ccc(Cl)cc2)CCN(c2ncnc3[nH]ccc23)CC1 [Capivasertib] + CCN(CCO)CCCOc1ccc2c(Nc3cc(CC(=O)Nc4cccc(F)c4)[nH]n3)ncnc2c1 [AZD2811] (first compound max 10 µM, 7x7, partner max 1 µM) | 0.786 | 0.272 | 0.648 | 0.364 | 0.734 | 0.315 | 0.233 | 0.441 | 0.535 | 0.503 | 0.567 | 0.458 | 0.74 | 0.689 | 0.864 |  | 0.918 | 0.553 | 0.413 | 0.457
CC(=O)c1c(C)c2cnc(Nc3ccc(N4CCNCC4)cn3)nc2n(C2CCCC2)c1=O [Palbociclib] + Cn1cnc2c(F)c(Nc3ccc(Br)cc3Cl)c(C(=O)NOCCO)cc21 [Selumetinib] (first compound max 10 µM, 7x7, partner max 10 µM) | 0.296 | 0.182 | 0.543 | 0.636 | 0.143 | 0.353 | 0.386 | 0.261 | 0.368 | 0.197 | 0.101 | 0.374 | 0.458 | 0.521 | 0.21 |  | 0.278 | 0.357 | 0.707 | 0.45
NC1(C(=O)N[C@@H](CCO)c2ccc(Cl)cc2)CCN(c2ncnc3[nH]ccc23)CC1 [Capivasertib] + CC(=O)c1c(C)c2cnc(Nc3ccc(N4CCNCC4)cn3)nc2n(C2CCCC2)c1=O [Palbociclib] (first compound max 10 µM, 7x7, partner max 10 µM) | 0.803 | 0.377 | 0.659 | 0.305 | 0.794 | 0.288 | 0.396 | 0.47 | 0.624 | 0.436 | 0.191 | 0.428 | 0.597 | 0.78 | 0.566 |  | 0.688 | 0.681 | 0.415 | 0.362
